Key:
[1] = system: mice; assay: mRNA translation efficiency in mice: LNP-mRNA by tail vein, luciferase in vivo imaging; conditions: 1 µg LNP-mRNA; for protein expression levels in mice: 24 hours after administration, compared to Comparative Example 1; for distribution after tail vein administration: mice, in vivo imaging (FIG. 1)
Experimental: The tail of each mouse was gently wiped with an alcohol cotton ball, and 1 µg of an LNP-mRNA drug was injected via the tail vein using an insulin syringe. Twenty-four hours after the tail vein administration, the mouse was intraperitoneally injected with 10% chloral hydrate (anesthetized according to the mouse body weight, 50-60 µL/20 g). After the mouse was anesthetized, 150 µL of a prepared luminescent substrate (luminescent substrate concentration: 15 mg/mL, Cat. No. 2109GR001, brand: biofroxx) was intraperitoneally injected. Five minutes after the injection of the luminescent substrate into the mouse, the mouse was placed in a small animal in vivo imaging system. The corresponding luciferase channel was selected to capture an in vivo image of the mouse, and the image was saved. This procedure was repeated at other time points, and the exposure parameters should be kept consistent for comparison.

[2] = system: mRNA; assay: mRNA in vitro transcription (IVT) yield with cap analog; assay type: biochemical; conditions: mRNA yield of IVT reaction, 37 °C 2 h, purified mRNA quantified by Nanodrop One
Experimental: (§1) mRNA IVT reactions were performed using the cap analogs from the examples. Firstly, the required volumes of materials for the system were calculated, and then the samples were added (the IVT reaction system is shown in Table 1). Sterile enzyme-free water was added to the system, and then 10× buffer, NTPs, and the cap analog were sequentially added. The mixture was uniformly mixed and then gently centrifuged, followed by the addition of the nuclease inhibitor, the inorganic pyrophosphatase, the T7 RNA polymerase, and the linearized DNA template. The resulting mixture was thoroughly mixed, then gently centrifuged, and incubated at 37 °C. After 2 h, DNase I (1 U) was added, and the mixture was incubated at 37 °C for another 30 min to remove the DNA template. RNA purification was then performed using a magnetic bead purification method. The purified mRNA was dissolved in sterile enzyme-free water, and then quantitative detection was performed using Nanodrop One. Table 1. IVT reaction system

[3] = system: mRNA; assay: IVT capping rate of mRNA by LC-MS after RNase H cleavage; assay type: biochemical
Experimental: as §1
Liquid chromatography-mass spectrometry (LC-MS) was used to detect the IVT capping rates of mRNAs with different starting cap analogs. Firstly, a labeled (usually biotin-labeled) DNA probe matched with the starting base of the transcribed mRNA product was required to be designed, and streptavidin-labeled magnetic beads were washed, and then incubated with the synthesized DNA probe, mRNA, and 10× RNase H reaction buffer with slow mixing at room temperature for 30 min. Subsequently, 20 µL of RNase H (5 U/µL) was added, and the mixture was incubated at 37 °C for 3 h, with uniform mixing every half hour. After the incubation was completed, the magnetic beads were washed, and then 100 µL of 75% methanol heated to 80 °C was added to the washed magnetic beads. The mixture was heated to 80 °C on a heating plate, held for 3 min, and then placed on a magnetic rack. The supernatant was pipetted and dried at room temperature for 45 min to 10 µL by using an evaporation centrifuge. The sample was then resuspended in 50 µL of 100 µM EDTA/1% MeOH for LC-MS analysis to determine the capping of RNA in the transcription reaction. Since capped and uncapped bases have a distinct difference in molecular weight, the capping rates of mRNA transcription processes initiated with different cap analogs can be determined by utilizing this difference in molecular mass.

SMILES	protein expression levels in mice [1]	distribution after tail vein administration [1]	Yield (µg) in 20 µL system [2] [µg]	Capping rate (%) [3] [%]
COC1C(OP(=O)(O)OCC2OC(n3cnc4c(=O)[nH]c(N)nc43)C(O)C2O)C(COP(=O)(O)OP(=O)(O)OP(=O)(O)C2CC2C2OC(n3c[n+](C)c4c(=O)[nH]c(N)nc43)C(O)C2O)OC1n1cnc2c(N)ncnc21 (stereo not shown) [Compound 1]	higher protein expression levels in mice compared to Comparative Example 1	mainly distributed in the liver	114	99.1
COC1C(O)C(n2c[n+](C)c3c(=O)[nH]c(N)nc32)OC1C1CC1P(=O)(O)OP(=O)(O)OP(=O)(O)OCC1OC(n2cnc3c(N)ncnc32)C(OC)C1OP(=O)(O)OCC1OC(n2cnc3c(=O)[nH]c(N)nc32)C(O)C1O (stereo not shown) [Compound 2]	higher protein expression levels in mice compared to Comparative Example 1	mainly distributed in the liver	117	98.4
COCC1C(O)C(n2c[n+](C)c3c(=O)[nH]c(N)nc32)OC1C1CC1P(=O)(O)OP(=O)(O)OP(=O)(O)OCC1OC(n2cnc3c(N)ncnc32)C(OC)C1OP(=O)(O)OCC1OC(n2cnc3c(=O)[nH]c(N)nc32)C(O)C1O (stereo not shown) [Compound 5]			110	96.3
COC1C(OP(=O)(O)OCC2OC(n3cnc4c(=O)[nH]c(N)nc43)C(O)C2O)C(COP(=O)(O)OP(=O)(O)OP(=O)(O)C2CC2C2OC(n3c[n+](C)c4c(=O)[nH]c(N)nc43)C(F)C2O)OC1n1cnc2c(N)ncnc21 (stereo not shown) [Compound 9]			98	94.5
COC1C(OP(=O)(O)OCC2OC(n3cnc4c(=O)[nH]c(N)nc43)C(O)C2O)C(COP(=O)(O)OP(=O)(O)OP(=O)(O)C2CC2C2OC(n3c[n+](C)c4c(=O)[nH]c(N)nc43)C(O)C2CNC(C)=O)OC1n1cnc2c(N)ncnc21 (stereo not shown) [Compound 10]			103	96.3
CO[C@@H]1[C@H](OP(=O)(O)OC[C@H]2O[C@@H](n3cnc4c(=O)[nH]c(N)nc43)[C@H](O)[C@@H]2O)[C@@H](COP(O)(=S)OP(=O)(O)OP(=O)(O)C2CC2[C@H]2O[C@@H](n3c[n+](C)c4c(=O)[nH]c(N)nc43)[C@H](O)[C@@H]2O)O[C@H]1n1cnc2c(N)ncnc21 (stereo partly shown) [Compound 14]			102	98.0
CO[C@@H]1[C@H](OP(=O)(O)OC[C@H]2O[C@@H](n3cnc4c(=O)[nH]c(N)nc43)[C@H](O)[C@@H]2O)[C@@H](C2CC2P(=O)(O)OP(=O)(O)OP(=O)(O)OC[C@H]2O[C@@H](n3c[n+](C)c4c(=O)[nH]c(N)nc43)[C@H](O)[C@@H]2O)O[C@H]1n1cnc2c(N)ncnc21 (stereo partly shown) [Compound 21]			99	97.1
CO[C@@H]1[C@H](OP(=O)(O)C2CC2[C@H]2O[C@@H](n3cnc4c(=O)[nH]c(N)nc43)[C@H](O)[C@@H]2O)[C@@H](COP(=O)(O)OP(=O)(O)OP(=O)(O)OC[C@H]2O[C@@H](n3c[n+](C)c4c(=O)[nH]c(N)nc43)[C@H](O)[C@@H]2O)O[C@H]1n1cnc2c(N)ncnc21 (stereo partly shown) [Compound 22]			115	96.0
CO[C@@H]1[C@H](OP(=O)(O)OC[C@H]2O[C@@H](n3cnc4c(=O)[nH]c(N)nc43)[C@H](O)[C@@H]2O)[C@@H](COP(=O)(O)OP(=O)(O)OP(=O)(O)OC2([C@H]3O[C@@H](n4c[n+](C)c5c(=O)[nH]c(N)nc54)[C@H](O)[C@@H]3O)CC2)O[C@H]1n1cnc2c(N)ncnc21 [Compound 31]	higher protein expression levels in mice compared to Comparative Example 1	mainly distributed in the liver	112	98.5
CO[C@@H]1[C@H](OP(=O)(O)OC[C@H]2O[C@@H](n3cnc4c(=O)[nH]c(N)nc43)[C@H](O)[C@@H]2O)[C@@H](COP(=O)(O)OP(=O)(O)OP(=O)(O)OC2([C@H]3O[C@@H](n4c[n+](C)c5c(=O)[nH]c(N)nc54)[C@H](O)[C@@H]3OC)CC2)O[C@H]1n1cnc2c(N)ncnc21 [Compound 32]	higher protein expression levels in mice compared to Comparative Example 1	mainly distributed in the liver	116	98.9
CO[C@@H]1[C@H](OP(=O)(O)OC[C@H]2O[C@@H](n3cnc4c(=O)[nH]c(N)nc43)[C@H](O)[C@@H]2O)[C@@H](COP(=O)(O)OP(=O)(O)OP(=O)(O)OC[C@H]2O[C@@H](n3c[n+](C)c4c(=O)[nH]c(N)nc43)[C@H](O)[C@@H]2O)O[C@H]1n1cnc2c(N)ncnc21 [Compound 43, reference compound]		mainly distributed in the liver	105	96.1
